Substitutions are numbered along the chain they refer to. Like-named read-outs stand apart in the source and are kept apart here.

Assay type in all cases: binding
Test [1] deals with T1, TAF3 P881E W894F (GST-tagged PHD) (Mus musculus, UniProt Q5HZG4, P881E/W894F).
T1 construct: Mus musculus Taf3-PHD domain (residues 857–924); made in house; host or cells: E. coli BL21(DE3)
T1 sequence (Q5HZG4 857-924 P881E/W894F): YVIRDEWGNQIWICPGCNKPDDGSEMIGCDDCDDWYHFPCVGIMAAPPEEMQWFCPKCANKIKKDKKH
In words: ITC of GST-tagged Taf3-PHD P881E W894F. The source says:
(§1) The coding sequences of Mus musculus Taf3-PHD domain (residues 857–924) and Homosapiens PHF2 (1–66), PHF8 (37–102), and BPTF(2) (2865–2921) were cloned into the pGEX2T-derived vector, pRP265NB, for bacterial expression of GST-tagged proteins. Note that the PHD fingers of M. musculus Taf3 and H. sapiens TAF3 differ in a single amino acid. A901 in mouse corresponds to T899 in human. Here, amino acid numbering corresponds to mouse Taf3 isoform 1 with UniProt ID: Q5HZG4, accessible at https://www.uniprot.org/uniprotkb/Q5HZG4/entry. Single or double mutations were introduced by mutagenesis polymerase chain reaction and validated by Sanger sequencing. A single colony of freshly transformed BL21(DE3) Escherichia coli bacteria with the corresponding construct was grown in Luria broth (LB) medium supplemented with 50 μg/ml ampicillin until an OD600 of 0.7. […]
(§2) ITC experiments were performed at 20°C with a MicroCal VP-ITC microcalorimeter (Malvern) by sequential injection of 10 μl at 300 μM histone peptide during 20 s into the sample cell containing 30 or 15 μM of GST-Taf3 (wild type or mutant) or GST-BPTF, GST-PHF2, and GST-PHF8 PHDs in ITC buffer (100 mM NaCl, 20 mM Tris–HCl, pH 7.5). […] ITC data were subsequently analysed and fitted with the one-site binding model in the MicroCal ITC Origin Analysis software 7.0 (Table 1, Figs 3B and 5A, Supplementary Table S3, and Supplementary Fig. S10). […]

The target in test [2] is T2, PHF2 PHD (1–66, GST-tagged) (Homo sapiens, UniProt O75151).
T2 construct: PHF2 (1–66); made in house; host or cells: E. coli BL21(DE3)
T2 sequence (O75151 1-66): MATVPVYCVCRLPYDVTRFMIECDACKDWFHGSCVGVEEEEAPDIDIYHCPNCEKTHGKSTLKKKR
In words: ITC of GST-tagged PHF2 PHD.
Description: as §1, §2

In test [3] the target is T3, TAF3 S880A (GST-tagged PHD) (Mus musculus, UniProt Q5HZG4, S880A).
T3 construct: Mus musculus Taf3-PHD domain (residues 857–924); made in house; host or cells: E. coli BL21(DE3)
T3 sequence (Q5HZG4 857-924 S880A): T1 sequence (Q5HZG4 857-924 P881E/W894F) with S24A, E25P, F38W
In words: ITC of GST-tagged Taf3-PHD S880A.
Description: as §1, §2

Where [4] appears, read: ITC, 20°C, 100 mM NaCl, 20 mM Tris–HCl, pH 7.5, one-site model, ± = standard error of fit, read-out: K D.

Regarding `C[C@H](N)C(=O)N[C@@H](CCCNC(=N)N)C(=O)N[C@H](C(=O)N[C@@H](CCCC[N+](C)(C)C)C(=O)N[C@@H](CCC(=O)NCCc1c[nH]c2ccc(O)cc12)C(=O)N[C@H](C(=O)N[C@@H](C)C(=O)N[C@@H](CCCNC(=N)N)C(=O)N[C@@H](CCCCN)C(=O)N[C@@H](CO)C(=O)N[C@H](C(=O)NCC(N)=O)[C@@H](C)O)[C@@H](C)O)[C@@H](C)O` [H3K4me3Q5ser], the Kd was 111 ± 14 nM in test [1], 201 ± 22 nM in test [2] and 65 ± 5 nM in test [3].
`C[C@H](N)C(=O)N[C@@H](CCCNC(=N)N)C(=O)N[C@H](C(=O)N[C@@H](CCCC[N+](C)(C)C)C(=O)N[C@@H](CCC(N)=O)C(=O)N[C@H](C(=O)N[C@@H](C)C(=O)N[C@@H](CCCNC(=N)N)C(=O)N[C@@H](CCCCN)C(=O)N[C@@H](CO)C(=O)N[C@H](C(=O)NCC(N)=O)[C@@H](C)O)[C@@H](C)O)[C@@H](C)O` [H3K4me3]: the figures for the Kd in test [1] (setting [4]), in test [2] (setting [4]) and in test [3] (setting [4]) were 123 ± 10 nM, 286 ± 23 nM and 207 ± 34 nM, respectively.

For the origin of these results see paper PMC12238850, “Molecular determinants for recognition of serotonylated chromatin” (Nucleic Acids Research, 2025).
